Patent US20160362693A1, “Reagents and Methods for Treating Cancer” (PeptiMed, Inc., priority 2010, published 2016)

Key:
Assay type in all cases: cell-based, human
[1] = tested on: MCF-7 breast tumor cells; assay: Viability of breast tumor cells after siRNA transfection (trypan blue count); parameters: dose or concentration left out as unconfirmed; settings: DharmaFECT, 96 hours, vs control siRNA
Procedure: Each of the five siRNA duplexes presented in Table 2 were introduced into cultures of breast tumor cells at a concentration of 50 nM. Briefly, fifty to one hundred thousand tumor cells were added to each well of a 6 well plate and allowed to attach to the surface and grow for 18 hours in DMEM medium containing 10% fetal bovine serum. […] Cells were incubated with the siRNA for 96 hours. The viability of the breast tumor cells was assessed by counting cells with a hemocytometer following trypan blue exclusion. Each of the five sequences reduced the number of viable cells at least 40% (compared to control siRNA-treated cells) in at least one ovarian tumor cell line.

[2] = tested on: SK-OV-3 ovarian tumor cells; assay: Viability of ovarian tumor cells after siRNA transfection (trypan blue count); settings: 50 nM siRNA, DharmaFECT, 96 hours, vs control siRNA
Procedure: (§1) Each of the five siRNA duplexes presented in Table 2 were introduced into cultures of ovarian tumor cells at a concentration of 50 nM. Briefly, fifty to one hundred thousand tumor cells were added to each well of a 6 well plate and allowed to attach to the surface and grow for 18 hours in DMEM medium containing 10% fetal bovine serum. A total of 100 pmol of each siRNA was introduced into cells using 1 microliter DharmaFECT (Thermo Scientific) reagent in 2 ml total volume of media. Cells were incubated with the siRNA for 96 hours. The viability of the ovarian tumor cells was assessed by counting cells with a hemocytometer following trypan blue exclusion staining. Each of the five sequences reduced the number of viable cells at least 40% (compared to control siRNA-treated cells) in at least one ovarian tumor cell line.

[3] = tested on: UWB1.289 ovarian tumor cells; assay: as above; settings: 50 nM siRNA, DharmaFECT, 96 hours, vs control siRNA
Procedure: as §1

[4] = tested on: PA-1 ovarian tumor cells; assay: as above; settings: 50 nM siRNA, DharmaFECT, 96 hours, vs control siRNA
Procedure: as §1

[5] = tested on: Caov-3 ovarian tumor cells; assay: as above; settings: 50 nM siRNA, DharmaFECT, 96 hours, vs control siRNA
Procedure: as §1

[6] = tested on: OV-90 ovarian tumor cells; assay: as above; settings: 50 nM siRNA, DharmaFECT, 96 hours, vs control siRNA
Procedure: as §1

[7] = tested on: OVCAR3 ovarian tumor cells; assay: as above; settings: 50 nM siRNA, DharmaFECT, 96 hours, vs control siRNA
Procedure: as §1

[8] = tested on: TOV-112D ovarian tumor cells; assay: as above; settings: 50 nM siRNA, DharmaFECT, 96 hours, vs control siRNA
Procedure: as §1

[9] = tested on: ES-2 ovarian tumor cells; assay: as above; settings: 50 nM siRNA, DharmaFECT, 96 hours, vs control siRNA
Procedure: as §1

[10] = tested on: Hs832.Tc cells; assay: Viability of ovarian cells after siRNA transfection (trypan blue count); settings: 50 nM siRNA, DharmaFECT, 96 hours, vs control siRNA
Procedure: as §1

[11] = tested on: PC3 prostate tumor cells; assay: Viability of prostate tumor cells after siRNA transfection (trypan blue count); settings: 50 nM siRNA, DharmaFECT, 96 hours, vs control siRNA
Procedure: as §1, with “prostate” for “ovarian”, “[…]” for “100 pmol”, “DharmaFECT” for “DharmaFECT (Thermo Scientific)”

[12] = tested on: LNCaP prostate tumor cells; assay: as above; settings: 50 nM siRNA, DharmaFECT, 96 hours, vs control siRNA
Procedure: as §1, with “prostate” for “ovarian”, “[…]” for “100 pmol”, “DharmaFECT” for “DharmaFECT (Thermo Scientific)”

[13] = tested on: MDA-MB-231 breast tumor cells; assay: Viability of breast tumor cells after siRNA transfection (trypan blue count); parameters: dose or concentration left out as unconfirmed; settings: DharmaFECT, 96 hours, vs control siRNA
[14] = tested on: ES-2 cells; assay: Concentration-dependent effect of siRNA on cell survival (IC50); settings: cell viability 96 hours after adding siRNA, FIG. 6A, read-out: IC50 (concentration of siRNA that inhibited growth by 50%)
Procedure: (§2) FIG. 6A and FIG. 6B show concentration-dependent effects of siRNA against the EVI1 gene on cell survival. Ovarian tumor cells ES-2 and TOV-112D were seeded into each well of a 12 well plate. Increasing concentrations of siRNA were introduced into the cells using 1 microliter of Dharmafect reagent in 2 ml of medium. The number of viable cells was determined using trypan blue staining and counting in a hemacytometer.
(§3) For a substance to be an effective cancer therapeutic agent, it needs a robust cancer killing effect at very low concentrations, which for siRNA will be understood to be at subnanomolar concentrations in cell culture. The concentration of siRNA that inhibited growth of ovarian tumor cells by 50% (IC50) was determined by measuring cell viability 96 hours after adding one of various dose levels of siRNA to identical numbers of tumor cells in culture. […] For TOV-112D cells, the IC50 of siEVI1-979 (SEQ ID NOs 9-10) is ˜4 nM, and the IC50 of siEVI1-2910 (SEQ ID NOs 13-14) is ˜0.8 nM. To further identify potent sequences that inhibit the growth of ovarian tumor cells, sequences of up to 10 bp upstream and 10 bp downstream of siEVI1-2910 (SEQ ID NOs: 121-160) were prepared and administered to ES-2 and TOV-112D ovarian tumor cells at a concentration of 2.5 nM using DharmaFECT transfection reagent. FIG. 7A depicts the results of percent growth inhibition of TOV-112D ovarian tumor cells relative to a transfection control. […] FIG. 7B depicts the results of percent growth inhibition of ES-2 ovarian tumor cells relative to a transfection control.

[15] = tested on: TOV-112D cells; assay: as above; settings: cell viability 96 hours after adding siRNA, FIG. 6B, read-out: IC50 (concentration of siRNA that inhibited growth by 50%)
Procedure: as §2, §3

Substance | Response to siRNA (% growth inhibition) [1] [%] | Response to siRNA (% growth inhibition) [2] [%] | Response to siRNA (% growth inhibition) [3] [%] | Response to siRNA (% growth inhibition) [4] [%] | Response to siRNA (% growth inhibition) [5] [%] | Response to siRNA (% growth inhibition) [6] [%] | Response to siRNA (% growth inhibition) [7] [%] | Response to siRNA (% growth inhibition) [8] [%] | Response to siRNA (% growth inhibition) [9] [%] | Response to siRNA (% growth inhibition) [10] [%] | Response to siRNA (% growth inhibition) [11] [%] | Response to siRNA (% growth inhibition) [12] [%] | Response to siRNA (% growth inhibition) [13] [%] | IC50 [14] [nM] | IC50 [15] [nM]
siEVI1-256: siRNA duplex; sense 5′-ccagauaaaugaucagauauu-3′ SEQ ID NO: 7, antisense SEQ ID NO: 8 (sense CCAGAUAAAUGAUCAGAUAUU; antisense UAUCUGAUCAUUUAUCUGGUU; listed as RNA, chemistry not given here) | 32 | 12 | 43 | 0 | 13 | 26 | 0 | 36 | 0 | 0 | 23 | 4 | 31 | – | –
siEVI1-979: siRNA duplex; sense 5′-gugcaaagacuguggacaauu-3′ SEQ ID NO: 9, antisense SEQ ID NO: 10 (sense GUGCAAAGACUGUGGACAAUU; antisense UUGUCCACAGUCUUUGCACUU; listed as RNA, chemistry not given here) | 0 | 42 | 14 | 0 | 34 | 16 | 60 | 79 | 63 | 0 | 8 | 12 | 14 | ~2.5 | ~4
siEVI1-992: siRNA duplex; sense 5′-ggacaaauguucagcacuauu-3′ SEQ ID NO: 11, antisense SEQ ID NO: 12 (sense GGACAAAUGUUCAGCACUAUU; antisense UAGUGCUGAACAUUUGUCCUU; listed as RNA, chemistry not given here) | 0 | 31 | 73 | 0 | 46 | 25 | 0 | 70 | 54 | 10 | 35 | 12 | 23 | – | –
siEVI1-2910: siRNA duplex; sense 5′-ggaauguggaggagagaauuu-3′ SEQ ID NO: 13, antisense SEQ ID NO: 14 (sense GGAAUGUGGAGGAGAGAAUUU; antisense AUUCUCUCCUCCACAUUCCUU; listed as RNA, chemistry not given here) | 67 | 12 | 67 | 0 | 47 | 23 | 73 | 85 | 92 | 0 | 53 | 46 | 21 | ~0.5 | ~0.8
siEVI1-2994: siRNA duplex; sense 5′-augaagaaguugaagaugauu-3′ SEQ ID NO: 15, antisense SEQ ID NO: 16 (sense AUGAAGAAGUUGAAGAUGAUU; antisense UCAUCUUCAACUUCUUCAUUU; listed as RNA, chemistry not given here) | 57 | 0 | 0 | 18 | 28 | 33 | 0 | 70 | 54 | 0 | 25 | 12 | 21 | – | –
